From patent US9228202B2, “Intracellular viral vector delivery method employing iron ion/viral vector composite” (POSTECH ACADEMY-INDUSTRY FOUNDATION, priority 2009, dated 2016) come the findings set out here.

Data set [1] relates to rBMSC. Put plainly: Cytotoxicity assay of ferric ions (CCK8 cell viability). It is filed as cell-based, rat. As to the method: A cytotoxicity assay was done with rBMSC in order to evaluate the safety of ferric ions alone or the ferric ion/adenoviral vector composite to the body. rBMSC was incubated for 2 hours with 0.2 μM˜50 mM ferric ions alone or in combination with 100 MOI of an adenoviral vector. On the next day, cell viability was determined using a CCK8 kit (DOJINDO, Japan).

Data set [2] deals with rBMSC. Put plainly: Comparison of intracellular delivery of adenoviral vector among ferrous, ferric and calcium ions. It is filed as cell-based, rat. The settings on record: rAd/EGFP 30 MOI with 50 μM cation. As to the method: To examine whether ferric irons (Fe^3+) improve the delivery of […] into cells, the adenoviral vector rAd/EGFP, which carries a GFP (green fluorescent protein) gene, was employed. First, 30 or 100 MOI of rAd/EGFP was mixed and incubated with 2 μM, 10 μM or 50 μM ferric ions for 30 min at room temperature, followed by infection for 2 hours into rat bone marrow mesenchymal stem cells (rBMSC), the human cervical cancer cell line HeLa, and the human amelanotic melanoma cell line (A375), all free from the expression of CAR, a primary receptor for adenoviruses. Then, the viral mixture was removed and the medium was changed with DMEM before incubation for two days in a CO2 incubator (CO2 water Jacketed Incubator, Form a Scientific™). The cells were detached by trypsinization and analyzed for intracellular GFP level using FACS (fluorescence activated cell sorter, BD).
Ferrous and ferric ions were compared with calcium ions, known to improve the gene delivery of adenoviral vectors, for efficacy of gene delivery. In this regard, rBMSC was treated with rAd/EGFP (30 MOI) and 50 μM cations (Fe^2+, Fe^3+, Ca^2+) in the same manner as in Example 1, and the efficacy of gene delivery was compared among the cations.

As for `[Fe+3]` [ferric ions], the “50% cell viability concentration relative to the iron ion concentration used for gene delivery (10~50 μM)” value with rBMSC [1] is 1000 fold. Besides, in the data set on rBMSC [1] (2 h incubation, CCK8 next day), the “iron ion concentration at which cytotoxicity starts” value is on record as 10 mM. In the data set with rBMSC [1] (iron ion concentration of 50 mM, CCK8), the cell viability entry is on record as “decreased to zero”. Further, the “gene delivery efficiency relative to calcium ions” value with rBMSC [2] stood at 60 times.

`[Fe+2]` [ferrous ions]: the “gene delivery efficiency relative to calcium ions” value in the data set with rBMSC [2] was determined as 60 times.
